# Test results as given in article PMC3438169 (PLoS ONE, 2012).
# Entries after “also recorded” stand apart in the source; their conditions may differ. *1 amine or outer side, *2 acyl side, *3 side chain or, on linkers, in order; H or OH if unused. Where a SMILES comes first, the peptide text is derived from it. [ ]: non-standard residue; d: D form. dAla(ψthiazole) = C[C@@H](N[*:1])c1nc(C(=O)[*:2])cs1; Trp(4-OMe) = COc1cccc2[nH]cc(C[C@H](N)C(=O)O)c12; dAbu = CC[C@@H](N)C(=O)O; Dha = C=C(N)C(=O)O; Sar = CNCC(=O)O
# Experiments:
# P. aeruginosa = test: Resistant mutant selection, P. aeruginosa; type: cell-based; conditions: P. aeruginosa K767; solid medium containing 128 µg/ml argyrin B
# Description: Resistance frequencies were calculated as the number of CFU (mutants) on drug containing plates divided by the number of CFU plated. Whole genome sequencing was done as described previously. The fusA1 gene from P. aeruginosa was generated for sequencing in two parts, using primer pairs PAEFF1/PAEFR1: […]/[…] and EFF2/EFR1: […]/[…]. The fusA1 gene from B. multivorans was generated as a single band using BCEFGF1/BCEFGR1: […]/[…]. Nucleotide sequencing of the products was done by Agencourt (Beverly MA).
# [1] = system: efflux-defective yeast strain (BYΔ8); test: Yeast colony formation on ethanol/glycerol medium; type: cell-based, S. cerevisiae; conditions: 0.1 µM argyrin B
# Description: Strain BYΔ8 was incubated in 2.5% ethylmethanesulfonate until only 50% of the cells formed colonies. […] Amplifying the mutated MEF1 gene and transforming it into non-mutagenized BYΔ8 cells validated identified mutations in MEF1.
# [2] = system: succinate dehydrogenase flavoprotein subunit (SDHA); test: Immunoblot of nuclear-encoded SDHA in HCT116 and RKO cells; type: cell-based, human; conditions: 4 days
# Description: (§1) Whole cell lysates were prepared using RIPA buffer (Cell Signaling Technology) supplemented with EDTA-free protease inhibitor cocktail (Roche Applied Science), cleared by centrifugation at 16,000× g for 10 min, normalized based on protein concentration (Bio-Rad protein assay), boiled in NuPAGE LDS sample buffer (Invitrogen) supplemented with 2% ß-mercaptoethanol, and separated on NuPAGE 4–12% Bis-Tris gels using MOPS running buffer (Invitrogen). Proteins were transferred to nitrocellulose membranes and probed with the following primary antibodies: rabbit polyclonal antibody against mEF-G1 (Sigma, HPA034765), rabbit monoclonal antibody against GAPDH (Cell Signaling Technology, 14C10), mouse monoclonal antibodies against COX2 (Invitrogen, A6404) or SDHA (MitoSciences, MS204). Immobilized primary antibodies were visualized using HRP-conjugated anti-rabbit or anti-mouse IgG (Millipore, AP307P and AP308P) and enhanced chemiluminescence (Pierce).
# [3] = system: cytochrome c oxidase subunit 2 (COX2); test: Immunoblot of mitochondrial-encoded COX2 in HCT116 and RKO cells; type: cell-based, human; conditions: 4 days
# Description: as §1
# P. aeruginosa EF-G1 = biological target: T1, P. aeruginosa EF-G1 (Pseudomonas aeruginosa, UniProt Q9HWD2); test: Surface plasmon resonance (SPR); type: binding
# T1 construct: P. aeroginosa fusA1 encoding full-length EF-G was PCR amplified from pET28a-PaEFG-Nhis; made in house; host or cells: E. coli BL21 (DE3)
# T1 sequence (Q9HWD2 whole entry): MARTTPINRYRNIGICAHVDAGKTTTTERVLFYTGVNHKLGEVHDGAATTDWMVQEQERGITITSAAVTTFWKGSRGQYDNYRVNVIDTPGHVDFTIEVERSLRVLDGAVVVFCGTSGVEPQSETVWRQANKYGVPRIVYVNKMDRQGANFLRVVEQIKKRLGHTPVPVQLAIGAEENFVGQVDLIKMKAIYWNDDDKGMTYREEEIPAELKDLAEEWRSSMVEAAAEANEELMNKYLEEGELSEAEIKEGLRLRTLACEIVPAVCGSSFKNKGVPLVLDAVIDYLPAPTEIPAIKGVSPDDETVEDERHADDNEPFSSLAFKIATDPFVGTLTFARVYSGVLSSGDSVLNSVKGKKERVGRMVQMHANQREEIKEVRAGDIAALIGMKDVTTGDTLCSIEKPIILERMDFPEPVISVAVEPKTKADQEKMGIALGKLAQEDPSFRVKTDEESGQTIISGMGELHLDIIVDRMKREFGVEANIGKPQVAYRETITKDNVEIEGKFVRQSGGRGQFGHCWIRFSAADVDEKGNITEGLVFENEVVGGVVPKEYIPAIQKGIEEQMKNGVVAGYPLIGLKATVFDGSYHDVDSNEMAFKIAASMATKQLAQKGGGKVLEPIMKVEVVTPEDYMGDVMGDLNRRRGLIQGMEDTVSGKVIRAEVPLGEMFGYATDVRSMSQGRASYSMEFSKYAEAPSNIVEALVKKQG
# Text: For wild type P. aeruginosa EF-G1 expression, the fusA gene was amplified from genomic DNA of P. aeruginosa PAO1 K767 using the primer pair EFG-F/EFG-R: […]/[…]. The product was digested with NdeI and HindIII and ligated into similarly digested pET28a to generate pET28a-PaEFG-Nhis. This plasmid was then used for site directed mutagenesis to introduce the nucleotide change encoding EF-G1S459F (pET28a-PaEFGS459F-Nhis). The plasmids were then transformed into an E. coli strain BL21 (DE3) for expression. A single colony was used to inoculate 10 ml LB broth containing 50 µg/ml kanamycin which was incubated at 37°C overnight, with shaking at 250 rpm. The overnight culture was then diluted 100-fold into 1 liter fresh LB broth containing 50 µg/ml kanamycin. After growing at 37°C with vigorous shaking for about 2.5 hours, expression of P. aeruginosa EF-G1 or EF-G1S459F was then induced by adding 0.1 mM IPTG, with further culture incubation at 18°C for 24 hours. Cells were then pelleted by centrifugation at 5,000 rpm with Sorvall SLC-6000 rotor and stored at −20°C. Cell pellets were then resuspended in 20 ml of BugBuster solution (Novagen) and incubated at room temperature for 20 minutes. […] The protein in the fractions was monitored by UV absorbance at 280 nm. […] Protein concentration was determined by Nano-drop spectrophotometer. […]
smiles,measurement,setting,value
C=C1NC(=O)CN(C)C(=O)CNC(=O)[C@H](Cc2c[nH]c3cccc(OC)c23)NC(=O)[C@H](Cc2c[nH]c3ccccc23)NC(=O)c2csc(n2)[C@@H](C)NC(=O)[C@@H](CC)NC1=O [argyrin B] (cyclo([dAbu][dAla(ψthiazole)]W[Trp(4-OMe)]G[Sar][Dha])),frequency of mutants with decreased susceptibility,P. aeruginosa,circa 5×10^−8
same,Colony formation (in words),[1],abolished colony formation
same,SDHA protein level (in words),"[2]; HCT116, 1 µM argyrin B",did not affect the levels
same,SDHA protein level (in words),"[2]; RKO, 1 µM argyrin B",did not affect the levels
same,COX2 protein level (in words),"[3]; HCT116, 1 µM argyrin B",depleted
same,COX2 protein level (in words),"[3]; RKO, 1 µM argyrin B",depleted
same,Binding to purified P. aeruginosa EF-G (in words),P. aeruginosa EF-G1,bound purified P. aeruginosa EF-G tightly; also recorded: Very tight binding
